PubChem BioAssay AID179 (DTP/NCI, 2004)
The source made the active and inactive calls.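 The calls were made as follows: active = compounds giving half or more protection of infected cells from virus-caused growth loss, again on retest; inactive = the rest.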

Tested on: CEM cells HIV-1 protection, formazan growth assay
Test: NCI AIDS Antiviral Assay
Conditions: for IC50: measured here: growth of uninfected CEM cells
Procedure, shortened: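 Category rules: moderately active means at least 50% protection on retest, and confirmed active means 100% protection reproducibly. The underlying data came from a formazan growth assay in HIV-1-infected CEM cells.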

Compound | outcome | EC50 | IC50
CSc1nc(-c2ccc(Cl)cc2)c(C#N)c(=O)[nH]1 | inactive |  | 
O=C(CC1(O)C(=O)Nc2c(Cl)ccc(Cl)c21)c1ccc(Cl)cc1 (stereo unspecified) |  | > 51.3 µM | > 51.3 µM
COc1ccc(/C(=N/Nc2nc3ccccc3[nH]2)C(=O)O)cc1 |  | > 200 µM | > 200 µM
Cc1nc2ccccc2c(C)[n+]1[O-] |  | > 200 µM | > 200 µM
CCOC(=O)c1c(NC(=O)CCl)ssc1=S |  | > 200 µM | 50.1 µM
O=C([O-])C1([n+]2c(-c3ccccc3)cc(-c3ccccc3)cc2-c2ccccc2)CC1 |  | > 200 µM | 81.3 µM
CCSC(=O)n1ncc2cc(Cl)ccc21 |  | > 200 µM | 30.2 µM
COC(=O)[C@]12CSCN1C(=O)C(C(C)=O)=NN2C(=O)[C@](OC)(c1ccccc1)C(F)(F)F |  | > 200 µM | > 200 µM
O=c1ccn(C2CC(O)C(CO)O2)c(=O)[nH]1 (stereo unspecified) |  | > 589 µM | 309 µM
Nc1nc(Cl)cc(OCC2(O)CC(COC(=O)c3ccccc3)C2)n1 (stereo unspecified) |  | > 200 µM | 60.3 µM
CC(=O)NNc1nc(C)c(C(/C=C/c2ccc(Cl)cc2)=N/NC(=O)C[N+](C)(C)C)s1 |  | > 14.8 µM | > 14.8 µM
O=Nc1c(N=O)c(N=O)c(N=O)c(N=O)c1N=O |  | > 20 µM | 2.34 µM
Cc1[nH]n(-c2ncc(C#N)c(=O)[nH]2)c(=O)c1CCO |  | > 200 µM | > 200 µM
CCc1cc2c(c3c1CCCC3)CC1(Cc3ccc(C(=O)OC)cc3C1)C2 (stereo unspecified) |  | > 200 µM | > 200 µM
COC(=O)C(=O)C(C(=O)C(=O)Nc1ccccc1C(N)=O)c1nc2ccc(Cl)cc2[nH]c1=O (stereo unspecified) |  | > 75.9 µM | > 75.9 µM
CC(C)(C)OC(=O)N/N=C(/N)Cc1ccccc1 |  | > 200 µM | > 200 µM
O=[N+]([O-])c1cc(-c2ccccc2)c([O][Sn]([c]2ccccc2)([c]2ccccc2)[c]2ccccc2)c([N+](=O)[O-])c1 |  | > 200 µM | 3.8 µM
O=c1c2cc3c(cc2c2cccc4c2n1CCC4)OCO3 | inactive |  | 
CCOC(=O)C(N=Nc1ccc(S(N)(=O)=O)cc1)C(C)=O (stereo unspecified) |  | > 794 µM | 389 µM
Oc1ccc(CCl)c2cccnc12 |  | > 562 µM | 10.2 µM
COC(=O)[C@H]1C=C[C@@H](C)n2c(=O)c3cc4ccccc4cc3c(=O)n21 |  | > 21.4 µM | > 21.4 µM

Compound | outcome | EC50 | IC50
Cc1cc(C(F)(F)F)cc(-n2nc(NS(=O)(=O)c3cc(C)c(Cl)cc3S)nc2N)n1 |  | > 200 µM | 166 µM
COC1(OC)C=NNc2nccn21 |  | > 200 µM | > 200 µM
CSc1nc(NC2OC(COC(C)=O)C(OC(C)=O)C(OC(C)=O)C2OC(C)=O)c(N=C(C)C(C)=O)c(=O)[nH]1 (stereo unspecified) | inactive |  | 
c1ccc(N2N=NC3C4CC(C32)C2C4N=NN2c2ccccc2)cc1 (stereo unspecified) |  | > 200 µM | > 200 µM
NC(=S)Nc1cc(Cl)ccc1Cl |  | > 32.4 µM | > 32.4 µM
Cc1c2sc3ccccc3[nH]c2nc2[nH]c3ccccc3sc12 |  | > 38 µM | 14.8 µM
O=C1CSC(c2ccc([N+](=O)[O-])cc2)N1c1nc(-c2ccc3c(c2)CCCC3)cs1 (stereo unspecified) |  | 155 µM | 263 µM
COc1ccc(/C=C/C(=N\NC(=O)c2ccccc2)c2sc(Nc3ccc([N+](=O)[O-])cc3)nc2C)cc1OC |  | > 13.2 µM | > 13.2 µM
O=C(/C=C/c1ccccc1)CC(=O)CCC(=O)Nc1ccc(Cl)cc1 | inactive |  | 
CC1=C(c2cc(C(=O)Nc3cc(C)ccc3C)nc(N)n2)Sc2ccccc2N1 |  | > 12.9 µM | > 12.9 µM
Cc1nc(C)c(C(=O)NNC(N)=S)cc1C(=O)NNC(N)=S |  | > 200 µM | > 200 µM
O=C1NN=C(C2CCCCC2)C12CCCCC2 |  | > 214 µM | 67.6 µM
N#CC(C(=O)CCC(=O)Nc1ccc(Cl)c(Cl)c1)c1ccccc1 (stereo unspecified) |  | > 692 µM | > 692 µM
COc1cc(C[S+]2CCCC2)c(SC)cc1C[S+]1CCCC1 |  | > 83.2 µM | > 83.2 µM
CC(C)(C)[Si](C)(C)OCC1OC(n2ccc(=O)[nH]c2=O)/C(=C\C#N)C1O[Si](C)(C)C(C)(C)C (stereo unspecified) |  | > 200 µM | 35.5 µM
O=C1c2ccccc2C(=O)c2c(NCCCNCCO)ccc(NCCCNCCO)c21 | inactive |  | 
COC(=O)C1=C(C)N2CCSC2(C)C(C(=O)OC)C1c1cccc(Cl)c1 (stereo unspecified) |  | > 200 µM | 42.7 µM
S=c1[nH]nc(CNc2ccc(-c3n[nH]c(=S)n3-c3ccc(Cl)cc3)cc2)n1-c1ccc(Cl)cc1 |  | > 200 µM | 31.6 µM
CC(=O)c1sc(-c2nc(C)c(C(=O)/C=C\c3ccc(/C=C\C(=O)c4sc(-c5nc(C)c(C(C)=O)s5)nc4C)cc3)s2)nc1C |  | > 28.2 µM | > 28.2 µM
O=C(/C=C/c1ccc(O)c(O)c1)OC1CC(O)(C(=O)O)CC(O)C1O (stereo unspecified) |  | > 200 µM | 91.2 µM
Cc1cc2nc(-c3ccccn3)c(-c3ccccn3)nc2cc1C |  | > 200 µM | > 200 µM

Compound | outcome | EC50 | IC50
NC(N)=N/N=C(\c1ccc(F)cc1)C1CC1 |  | > 200 µM | 33.9 µM
Cc1ccc(S(=O)(=O)Nc2ccccc2SSc2ccccc2NS(=O)(=O)c2ccc(C)cc2)cc1 |  | > 200 µM | 4.57 µM
CCCCCCCCCCCCCC1=NCC(C)(C)N1 |  | > 93.3 µM | 20.4 µM
CC(C)C12OC1CC13OC1C1OC1C1OC132 (stereo unspecified) |  | > 200 µM | > 200 µM
CC[C@H]1CN(C)[C@H]2Cc3c([nH]c4ccccc34)C(=O)C[C@H]1C2C(=O)OC (stereo partly specified) |  | > 129 µM | > 129 µM
NC(=O)NCCCC(NC(=O)OCCCCn1ccc(=O)[nH]c1=O)C(=O)O (stereo unspecified) |  | > 200 µM | > 200 µM
COc1cc(/C=C2\C(=O)N(C(=O)c3ccc(NC(C)=O)cc3)N=C2C)ccc1O |  | > 66.1 µM | > 66.1 µM
CCCCCCCCCCCCCCCCOC[C@@H](COC(c1ccccc1)(c1ccccc1)c1ccccc1)O[P+](=S)OC (stereo partly specified) |  | > 200 µM | 22.4 µM
Cc1sc2nc3n(c(=O)c2c1C)N=CN(c1ccc(Cl)cc1)C3 |  | 9.33 µM | 50.1 µM
O=C1Cc2ccccc2N1C1c2ccccc2C=Cc2ccccc21 |  | > 200 µM | 21.4 µM
CCO[C@H]1O[C@@H]2OC3(C)CCC4[C@H](C)CCC([C@H]1C)[C@]42OO3 (stereo partly specified) |  | > 200 µM | 35.5 µM
CC1=C2C(=O)C(C)(C)C=C2C(=O)[C@](C)(O)C12CC2 | inactive |  | 
Cc1cc2c(C(C)C)c(O)c(O)c(C=Nc3ccc4ccccc4c3)c2c(O)c1-c1c(C)cc2c(C(C)C)c(O)c(O)c(C=Nc3ccc4ccccc4c3)c2c1O |  | 10.7 µM | 22.9 µM
CC1(O)C2(c3ccccc3)CCC[N+]1(C)CC2 (stereo unspecified) | inactive |  | 
N#Cc1nc(Nc2ccc(Cl)cc2)sc1N |  | > 525 µM | 9.77 µM
C[C@H]1CCC2C(OC(=O)[C@@H]2CN(C)C)[C@]2(C)C(=O)C=CC12O (stereo partly specified) | inactive |  | 
c1ccc(CN2CCC(=NN3CCCCC3)CC2)cc1 |  | > 200 µM | 89.1 µM
Cc1ccc(S(=O)C[C@](NC(=O)OCc2ccccc2)(Sc2ccccc2)C(F)F)cc1 (stereo partly specified) |  | > 200 µM | 10.7 µM
O=C(c1ccncc1)n1nc(-c2ccccc2)c(N=Nc2ccc([N+](=O)[O-])cc2)c1-c1ccccc1 |  | > 39.8 µM | > 39.8 µM
CO/N=C(\C(=O)OC(=NC1CCCCC1)NC1CCCCC1)c1csc(NC(c2ccccc2)(c2ccccc2)c2ccccc2)n1 |  | > 200 µM | 52.5 µM
